# Results published in patent US20260092071A1, “COMPOUNDS AND COMPOSITIONS AS SMARCA2/4 DEGRADERS AND USES THEREOF” (REGENTS OF THE UNIVERSITY OF MICHIGAN, priority 2022, published 2026).
# Read-outs that look alike come from different tables or passages of the source.
# Legend:
# [1] = molecular target: SMARCA4 (Homo sapiens, UniProt P51532); assay: HiBiT assay for protein degradation, Hela SMARCA4-HiBiT cells (A series); format: cell-based; set-up: fuse HiBiT to the carboxy terminus of SMARCA2 (Promega CS302365) or SMARCA4 (Promega CS3023225); host or cells: HeLa (CRISPR/Cas9 HiBiT knock-in); details: Hela SMARCA4-HiBiT cells, 24 hours treatment; for DC50: read-out: SMARC A4 Hela HiBit DC50; for Dmax: read-out: SMARC A4 Hela HiBit Dmax
# Chain of SMARCA4 (P51532 whole entry): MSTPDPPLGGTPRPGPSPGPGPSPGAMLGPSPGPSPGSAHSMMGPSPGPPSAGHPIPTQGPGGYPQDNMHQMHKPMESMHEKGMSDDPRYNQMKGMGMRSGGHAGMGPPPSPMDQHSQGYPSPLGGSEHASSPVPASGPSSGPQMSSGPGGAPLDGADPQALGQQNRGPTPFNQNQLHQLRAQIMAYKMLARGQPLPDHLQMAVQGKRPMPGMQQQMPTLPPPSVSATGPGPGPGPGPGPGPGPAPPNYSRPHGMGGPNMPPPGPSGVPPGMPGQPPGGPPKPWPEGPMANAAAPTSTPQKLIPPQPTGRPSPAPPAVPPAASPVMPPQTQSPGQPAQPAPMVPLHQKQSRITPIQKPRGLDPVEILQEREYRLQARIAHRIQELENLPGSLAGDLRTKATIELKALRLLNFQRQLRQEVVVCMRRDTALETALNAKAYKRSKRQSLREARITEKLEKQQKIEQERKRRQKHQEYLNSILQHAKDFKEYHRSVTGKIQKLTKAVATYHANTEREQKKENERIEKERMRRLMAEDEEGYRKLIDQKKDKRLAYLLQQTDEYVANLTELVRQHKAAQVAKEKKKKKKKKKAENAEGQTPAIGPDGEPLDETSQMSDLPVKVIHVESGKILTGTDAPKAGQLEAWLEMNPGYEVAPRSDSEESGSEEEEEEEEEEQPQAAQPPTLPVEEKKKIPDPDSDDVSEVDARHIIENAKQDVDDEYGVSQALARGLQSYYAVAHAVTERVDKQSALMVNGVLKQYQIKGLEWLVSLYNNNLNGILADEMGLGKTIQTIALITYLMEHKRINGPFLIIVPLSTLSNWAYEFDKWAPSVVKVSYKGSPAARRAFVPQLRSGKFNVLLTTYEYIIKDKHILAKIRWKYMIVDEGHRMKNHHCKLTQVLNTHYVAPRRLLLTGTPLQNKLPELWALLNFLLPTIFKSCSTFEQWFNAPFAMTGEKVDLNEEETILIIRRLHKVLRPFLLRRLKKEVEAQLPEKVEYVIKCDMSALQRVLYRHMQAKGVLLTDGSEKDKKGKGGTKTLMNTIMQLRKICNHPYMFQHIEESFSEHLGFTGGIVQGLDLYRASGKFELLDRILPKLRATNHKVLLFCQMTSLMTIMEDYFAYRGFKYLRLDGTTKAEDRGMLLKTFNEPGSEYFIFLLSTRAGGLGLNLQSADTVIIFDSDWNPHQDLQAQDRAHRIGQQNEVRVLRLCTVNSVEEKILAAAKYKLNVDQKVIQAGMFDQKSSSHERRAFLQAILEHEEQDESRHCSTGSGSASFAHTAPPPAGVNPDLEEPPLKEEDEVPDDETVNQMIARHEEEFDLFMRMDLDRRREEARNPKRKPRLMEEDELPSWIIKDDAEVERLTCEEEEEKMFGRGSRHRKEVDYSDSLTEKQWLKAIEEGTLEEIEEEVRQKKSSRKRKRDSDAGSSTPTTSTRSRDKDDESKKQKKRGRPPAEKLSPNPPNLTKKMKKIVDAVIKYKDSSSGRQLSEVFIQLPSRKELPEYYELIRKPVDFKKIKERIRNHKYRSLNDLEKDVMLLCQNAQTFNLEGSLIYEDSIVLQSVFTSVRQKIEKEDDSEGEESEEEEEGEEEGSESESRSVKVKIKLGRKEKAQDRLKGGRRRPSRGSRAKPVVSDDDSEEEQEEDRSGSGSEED
# In short: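 SMARCA4 degradation was measured in HeLa cells in which HiBiT had been knocked into the SMARCA4 carboxy terminus via CRISPR/Cas9 (Promega CS3023225). Cells were maintained in DMEM with FBS and penicillin-streptomycin. At the end of treatment, SMARCA4 levels were read by lytic HiBiT luminescence (Nano-Glo®, Promega N3050), and data were analyzed with GraphPad Prism.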
# [2] = molecular target: SMARCA2 (Homo sapiens, UniProt P51531); assay: HiBiT assay for protein degradation, Hela SMARCA2-HiBiT cells (A series); format: cell-based; set-up: Hela cells were genetically modified via CRISPR/Cas9 to fuse HiBiT to the carboxy terminus of SMARCA2; host or cells: HeLa (CRISPR/Cas9 HiBiT knock-in); details: for DC50: read-out: SMARC A2 Hela HiBit DC50; for Dmax: read-out: SMARC A2 Hela HiBit Dmax (%);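 as to SMARC A2 Hela HiBit Dmax (%): 24 h compound treatment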
# Chain of SMARCA2 (P51531 whole entry): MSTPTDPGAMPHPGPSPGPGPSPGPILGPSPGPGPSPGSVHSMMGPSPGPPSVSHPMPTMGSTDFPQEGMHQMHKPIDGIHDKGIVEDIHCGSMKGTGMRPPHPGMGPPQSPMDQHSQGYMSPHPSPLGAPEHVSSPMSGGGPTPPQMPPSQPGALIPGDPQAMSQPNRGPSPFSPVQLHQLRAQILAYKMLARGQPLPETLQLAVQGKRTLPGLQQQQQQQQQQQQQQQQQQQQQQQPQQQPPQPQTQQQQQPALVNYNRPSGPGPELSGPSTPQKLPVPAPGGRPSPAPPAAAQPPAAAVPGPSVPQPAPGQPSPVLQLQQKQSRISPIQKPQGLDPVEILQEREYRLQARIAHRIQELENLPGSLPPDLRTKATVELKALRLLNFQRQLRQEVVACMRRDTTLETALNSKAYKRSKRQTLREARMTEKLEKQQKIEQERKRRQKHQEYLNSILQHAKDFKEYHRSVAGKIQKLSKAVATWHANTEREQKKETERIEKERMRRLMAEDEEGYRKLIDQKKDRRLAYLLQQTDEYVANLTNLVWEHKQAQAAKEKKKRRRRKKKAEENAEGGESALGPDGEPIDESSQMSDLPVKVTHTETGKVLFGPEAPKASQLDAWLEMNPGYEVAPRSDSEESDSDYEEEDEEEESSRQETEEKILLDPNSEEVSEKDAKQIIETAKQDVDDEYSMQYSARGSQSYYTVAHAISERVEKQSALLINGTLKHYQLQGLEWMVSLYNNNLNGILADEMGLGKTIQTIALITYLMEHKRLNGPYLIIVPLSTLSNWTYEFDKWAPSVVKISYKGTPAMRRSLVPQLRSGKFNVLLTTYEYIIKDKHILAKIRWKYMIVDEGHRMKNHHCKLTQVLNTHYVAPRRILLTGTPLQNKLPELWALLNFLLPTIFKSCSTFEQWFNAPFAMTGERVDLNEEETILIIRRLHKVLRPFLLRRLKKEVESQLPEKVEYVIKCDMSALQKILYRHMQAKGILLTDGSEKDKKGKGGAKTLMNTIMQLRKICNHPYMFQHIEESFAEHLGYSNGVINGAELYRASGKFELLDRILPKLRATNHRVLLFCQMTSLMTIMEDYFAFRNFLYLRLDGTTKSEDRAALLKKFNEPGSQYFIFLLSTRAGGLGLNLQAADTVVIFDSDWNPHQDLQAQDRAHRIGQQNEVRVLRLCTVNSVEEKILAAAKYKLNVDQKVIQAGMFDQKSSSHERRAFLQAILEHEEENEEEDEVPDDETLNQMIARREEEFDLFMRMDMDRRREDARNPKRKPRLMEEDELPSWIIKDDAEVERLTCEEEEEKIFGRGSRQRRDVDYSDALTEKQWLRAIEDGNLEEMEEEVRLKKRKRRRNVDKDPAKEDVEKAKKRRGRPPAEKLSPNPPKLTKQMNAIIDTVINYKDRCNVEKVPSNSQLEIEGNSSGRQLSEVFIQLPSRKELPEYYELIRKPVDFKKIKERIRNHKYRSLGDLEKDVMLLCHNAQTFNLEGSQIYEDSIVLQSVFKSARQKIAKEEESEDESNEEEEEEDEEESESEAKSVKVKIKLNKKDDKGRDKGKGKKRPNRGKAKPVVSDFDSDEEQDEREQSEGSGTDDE
# In short: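 SMARCA2 degradation was measured in HeLa cells whose endogenous SMARCA2 carries a carboxy-terminal HiBiT tag introduced by CRISPR/Cas9 (Promega CS302365). Cells were maintained in DMEM with FBS and penicillin-streptomycin. SMARCA2 levels were read at the end of the experiment by Nano-Glo® HiBiT lytic luminescence (Promega N3050) and analyzed in GraphPad Prism.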
# [3] = Hela SMARCA2-HiBiT cells, 24 hours treatment
DC50 [1] [µM],Dmax [1] [%],"DC50 [2, 3] [µM]","Dmax [2, 3] [%]",SMILES,Dmax ([2]; HeLa) [%]
> 1,< 50,< 0.01,> 90,"Cc1ncsc1-c1ccc([C@H](C)NC(=O)[C@@H]2C[C@@H](O)CN2C(=O)[C@@H](n2cc([C@H]3CC[C@H](CN4CCC(c5cnc6c(c5)-n5c(nc(=O)c7c(Br)cccc75)C65CCCCC5)CC4)CC3)nn2)C(C)(C)C)cc1 [Compound A76, (2S,4R)-1-((S)-2-(4-((1r,4S)-4-((4-(4′-bromo-5′-oxo-5′H-spiro[cyclohexane-1,7′-pyrido[2′,3′: 4,5]pyrrolo[1,2-a]quinazolin]-10′-yl)piperidin-1-yl)methyl)cyclohexyl)-1H-1,2,3-triazol-1-yl)-3,3-dimethylbutanoyl)-4-hydroxy-N—((S)-1-(4-(4-methylthiazol-5-yl)phenyl)ethyl)pyrrolidine-2-carboxamide]",–
> 1,50 to 69,< 0.01,> 90,"Cc1ncsc1-c1ccc([C@H](CN2CCC(C(F)(F)F)CC2)NC(=O)[C@@H]2C[C@@H](O)CN2C(=O)[C@@H](n2cc([C@H]3CC[C@H](CN4CCC(c5ccc6c(c5)-n5c(nc(=O)c7c(Cl)cccc75)C65CCCCC5)CC4)CC3)nn2)C(C)(C)C)cc1 [Compound A83, (2S,4R)-1-((S)-2-(4-((1r,4S)-4-((4-(4′-chloro-5′-oxo-5′H-spiro[cyclohexane-1,7′-indolo[1,2-a]quinazolin]-10′-yl)piperidin-1-yl)methyl)cyclohexyl)-1H-1,2,3-triazol-1-yl)-3,3-dimethylbutanoyl)-4-hydroxy-N-(®-1-(4-(4-methylthiazol-5-yl)phenyl)-2-(4-(trifluoromethyl)piperidin-1-yl)ethyl)pyrrolidine-2-carboxamide]",–
> 1,< 50,0.01 to 0.1,> 90,"Cc1ncsc1-c1ccc([C@H](CN2CCC(C(F)F)CC2)NC(=O)[C@@H]2C[C@@H](O)CN2C(=O)[C@@H](n2cc([C@H]3CC[C@H](CN4CCC(c5ccc6c(c5)-n5c(nc(=O)c7c(Cl)cccc75)C65CCCCC5)CC4)CC3)nn2)C(C)(C)C)cc1 [Compound A84, (2S,4R)-1-((S)-2-(4-((1r,4S)-4-((4-(4′-chloro-5′-oxo-5′H-spiro[cyclohexane-1,7′-indolo[1,2-a]quinazolin]-10′-yl)piperidin-1-yl)methyl)cyclohexyl)-1H-1,2,3-triazol-1-yl)-3,3-dimethylbutanoyl)-N—((R)-2-(4-(difluoromethyl)piperidin-1-yl)-1-(4-(4-methylthiazol-5-yl)phenyl)ethyl)-4-hydroxypyrrolidine-2-carboxamide]",–
0.01 to 0.1,50 to 69,< 0.01,> 90,"Cc1ncsc1-c1ccc([C@H](CN2CCN(C)CC2)NC(=O)[C@@H]2C[C@@H](O)CN2C(=O)[C@@H](n2cc([C@H]3CC[C@H](CN4CCC(c5ccc6c(c5)-n5c(nc(=O)c7c(Cl)cccc75)C65CCCCC5)CC4)CC3)nn2)C(C)(C)C)cc1 [Compound A85, (2S,4R)-1-((S)-2-(4-((1r,4S)-4-((4-(4′-chloro-5′-oxo-5′H-spiro[cyclohexane-1,7′-indolo[1,2-a]quinazolin]-10′-yl)piperidin-1-yl)methyl)cyclohexyl)-1H-1,2,3-triazol-1-yl)-3,3-dimethylbutanoyl)-4-hydroxy-N—((R)-2-(4-methylpiperazin-1-yl)-1-(4-(4-methylthiazol-5-yl)phenyl)ethyl)pyrrolidine-2-carboxamide]",–
> 1,50 to 69,< 0.01,> 90,"COCCOC[C@H](NC(=O)[C@@H]1C[C@@H](O)CN1C(=O)[C@@H](n1cc([C@H]2CC[C@H](CN3CCC(c4ccc5c(c4)-n4c(nc(=O)c6c(Cl)cccc64)C54CCCCC4)CC3)CC2)nn1)C(C)(C)C)c1ccc(-c2scnc2C)cc1 [Compound A86, (2S,4R)-1-((S)-2-(4-((1r,4S)-4-((4-(4′-chloro-5′-oxo-5′H-spiro[cyclohexane-1,7′-indolo[1,2-a]quinazolin]-10′-yl)piperidin-1-yl)methyl)cyclohexyl)-1H-1,2,3-triazol-1-yl)-3,3-dimethylbutanoyl)-4-hydroxy-N-(®-2-(2-methoxyethoxy)-1-(4-(4-methylthiazol-5-yl)phenyl)ethyl)pyrrolidine-2-carboxamide]",–
> 1,50 to 69,< 0.01,> 90,"COCCOCCOC[C@H](NC(=O)[C@@H]1C[C@@H](O)CN1C(=O)[C@@H](n1cc([C@H]2CC[C@H](CN3CCC(c4ccc5c(c4)-n4c(nc(=O)c6c(Cl)cccc64)C54CCCCC4)CC3)CC2)nn1)C(C)(C)C)c1ccc(-c2scnc2C)cc1 [Compound A87, (2S,4R)-1-((S)-2-(4-((1r,4S)-4-((4-(4′-chloro-5′-oxo-5′H-spiro[cyclohexane-1,7′-indolo[1,2-a]quinazolin]-10′-yl)piperidin-1-yl)methyl)cyclohexyl)-1H-1,2,3-triazol-1-yl)-3,3-dimethylbutanoyl)-4-hydroxy-N-(®-2-(2-(2-methoxyethoxy)ethoxy)-1-(4-(4-methylthiazol-5-yl)phenyl)ethyl)pyrrolidine-2-carboxamide]",–
0.01 to 0.1,70 to 90,0.01 to 0.1,> 90,"Cc1ncsc1-c1ccc([C@H](CN2CCOCC2)NC(=O)[C@@H]2C[C@@H](O)CN2C(=O)[C@@H](n2cc([C@H]3C[C@H](CN4CC5(CCC(c6ccc7c(c6)-n6c(nc(=O)c8c(Cl)cccc86)C76CCCCC6)CC5)C4)C3)nn2)C(C)(C)C)cc1 [Compound A88, (2S,4R)-1-((S)-2-(4-((1r,3S)-3-((7-(4′-chloro-5′-oxo-5′H-spiro[cyclohexane-1,7′-indolo[1,2-a]quinazolin]-10′-yl)-2-azaspiro[3.5]nonan-2-yl)methyl)cyclobutyl)-1H-1,2,3-triazol-1-yl)-3,3-dimethylbutanoyl)-4-hydroxy-N—((R)-1-(4-(4-methylthiazol-5-yl)phenyl)-2-morpholinoethyl)pyrrolidine-2-carboxamide]",–
> 1,50 to 69,< 0.01,> 90,"Cc1ncsc1-c1ccc([C@H](C)NC(=O)[C@@H]2C[C@@H](O)CN2C(=O)[C@@H](n2cc([C@H]3CC[C@H](CN4CCC(c5ccc6c(c5)-n5c(nc(=O)c7c(Cl)cccc75)C6(C)C)CC4)CC3)nn2)C(C)(C)C)cc1 [Compound A89, (2S,4R)-1-((S)-2-(4-((1r,4S)-4-((4-(4-chloro-7,7-dimethyl-5-oxo-5,7-dihydroindolo[1,2-a]quinazolin-10-yl)piperidin-1-yl)methyl)cyclohexyl)-1H-1,2,3-triazol-1-yl)-3,3-dimethylbutanoyl)-4-hydroxy-N—((S)-1-(4-(4-methylthiazol-5-yl)phenyl)ethyl)pyrrolidine-2-carboxamide]",–
> 1,< 50,< 0.01,> 90,Cc1ncsc1-c1ccc([C@H](CN2CCOCC2)NC(=O)[C@@H]2C[C@@H](O)CN2C(=O)[C@@H](n2cc([C@H]3CC[C@H](CN4CCC(c5ccc6c(c5)-n5c(nc(=O)c7c(Cl)cccc75)C6(C)C)CC4)CC3)nn2)C(C)(C)C)cc1 [Compound A90],–
> 1,< 50,< 0.01,> 90,"COCCOC[C@H](NC(=O)[C@@H]1C[C@@H](O)CN1C(=O)[C@@H](n1cc([C@H]2CC[C@H](CN3CCC(c4ccc5c(c4)-n4c(nc(=O)c6c(Cl)cccc64)C5(C)C)CC3)CC2)nn1)C(C)(C)C)c1ccc(-c2scnc2C)cc1 [Compound A91, (2S,4R)-1-((S)-2-(4-((1r,4S)-4-((4-(4-chloro-7,7-dimethyl-5-oxo-5,7-dihydroindolo[1,2-a]quinazolin-10-yl)piperidin-1-yl)methyl)cyclohexyl)-1H-1,2,3-triazol-1-yl)-3,3-dimethylbutanoyl)-4-hydroxy-N-(®-2-(2-methoxyethoxy)-1-(4-(4-methylthiazol-5-yl)phenyl)ethyl)pyrrolidine-2-carboxamide]",–

SMILES,DC50 [1] [µM],Dmax [1] [%],"DC50 [2, 3] [µM]","Dmax [2, 3] [%]",Dmax ([2]; HeLa) [%]
"Cc1ncsc1-c1ccc([C@H](C)NC(=O)[C@@H]2C[C@@H](O)CN2C(=O)[C@@H](n2cc([C@H]3CC[C@H](CN4CCC(c5ccc6c(n5)-n5c(nc(=O)c7c(Cl)cccc75)C65CCCCC5)CC4)CC3)nn2)C(C)(C)C)cc1 [Compound A78, (2S,4R)-1-((S)-2-(4-((1r,4S)-4-((4-(4′-chloro-5′-oxo-5′H-spiro[cyclohexane-1,7′-pyrido[3′,2′: 4,5]pyrrolo[1,2-a]quinazolin]-10′-yl)piperidin-1-yl)methyl)cyclohexyl)-1H-1,2,3-triazol-1-yl)-3,3-dimethylbutanoyl)-4-hydroxy-N—((S)-1-(4-(4-methylthiazol-5-yl)phenyl)ethyl)pyrrolidine-2-carboxamide]",> 1,–,0.01 to 0.1,–,70 to 90
